Results as given in ChEMBL document CHEMBL4145442, “Novel LCK/FMS inhibitors based on phenoxypyrimidine scaffold as potential treatment for inflammatory disorders” (Eur J Med Chem, 2017).
pIC50: −log10 of the molar value.

Experiments:
[1] = molecular target: T1, Tyrosine-protein kinase Lck (Homo sapiens, UniProt P06239); test: Inhibition of LCK (unknown origin) after 120 mins in presence of 33P-ATP
Target sequence in this assay (P06239 whole entry): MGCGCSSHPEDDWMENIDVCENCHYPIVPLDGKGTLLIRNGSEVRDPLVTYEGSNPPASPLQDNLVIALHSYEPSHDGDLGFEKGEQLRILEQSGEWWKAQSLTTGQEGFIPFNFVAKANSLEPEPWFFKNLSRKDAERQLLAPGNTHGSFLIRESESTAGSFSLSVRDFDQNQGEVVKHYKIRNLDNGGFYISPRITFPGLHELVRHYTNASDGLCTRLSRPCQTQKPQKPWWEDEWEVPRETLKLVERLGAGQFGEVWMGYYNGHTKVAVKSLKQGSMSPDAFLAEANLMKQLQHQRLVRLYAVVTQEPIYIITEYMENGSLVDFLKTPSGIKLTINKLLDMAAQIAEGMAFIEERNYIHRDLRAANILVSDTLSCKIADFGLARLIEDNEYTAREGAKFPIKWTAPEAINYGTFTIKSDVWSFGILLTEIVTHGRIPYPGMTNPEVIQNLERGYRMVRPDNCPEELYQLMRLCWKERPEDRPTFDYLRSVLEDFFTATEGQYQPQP

[2] = molecular target: T1, Tyrosine-protein kinase Lck; test: Inhibition of LCK (unknown origin) assessed as remaining activity at […] x 10^-6 M after 120 mins in presence of 33P-ATP (reference value: […]% to […]%)
Target sequence in this assay (P06239 2-509 limits assumed): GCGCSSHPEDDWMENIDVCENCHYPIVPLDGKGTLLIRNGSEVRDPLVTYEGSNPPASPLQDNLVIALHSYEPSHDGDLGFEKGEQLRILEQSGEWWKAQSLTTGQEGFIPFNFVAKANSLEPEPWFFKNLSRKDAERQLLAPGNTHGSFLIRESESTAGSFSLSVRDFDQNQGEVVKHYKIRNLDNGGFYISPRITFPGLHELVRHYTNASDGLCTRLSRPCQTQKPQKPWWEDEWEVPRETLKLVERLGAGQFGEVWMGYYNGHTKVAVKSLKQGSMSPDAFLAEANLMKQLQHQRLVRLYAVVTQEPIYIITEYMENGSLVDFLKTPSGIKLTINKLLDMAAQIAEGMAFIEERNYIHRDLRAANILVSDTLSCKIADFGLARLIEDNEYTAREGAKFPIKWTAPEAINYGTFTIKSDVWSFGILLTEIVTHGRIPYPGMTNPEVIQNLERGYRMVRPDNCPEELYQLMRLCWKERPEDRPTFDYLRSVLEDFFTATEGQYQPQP

[3] = molecular target: T1, Tyrosine-protein kinase Lck; test: Inhibition of LCK (unknown origin) assessed as remaining activity at 1 x 10^-5 M after 120 mins in presence of 33P-ATP (reference value: […]% to […]%); details: at 10 µM
Target sequence in this assay (P06239 2-509 limits assumed): as above

[4] = molecular target: T1, Tyrosine-protein kinase Lck; test: Inhibition of LCK (unknown origin) assessed as remaining activity at 3.33 x 10^-6 M after 120 mins in presence of 33P-ATP (reference value: […]% to […]%); details: at 3.33 µM
Target sequence in this assay (P06239 2-509 limits assumed): as above

[5] = molecular target: T1, Tyrosine-protein kinase Lck; test: Inhibition of LCK (unknown origin) assessed as remaining activity at 3 x 10^-5 M after 120 mins in presence of 33P-ATP (reference value: […]% to […]%); details: at 30 µM
Target sequence in this assay (P06239 2-509 limits assumed): as above

[6] = molecular target: T1, Tyrosine-protein kinase Lck; test: Inhibition of LCK (unknown origin) assessed as remaining activity at 3.7 x 10^-7 M after 120 mins in presence of 33P-ATP (reference value: […]% to […]%); details: at 0.37 µM
Target sequence in this assay (P06239 2-509 limits assumed): as above

RAW264.7 [7] = test: Inhibition of LPS-induced NO production in mouse RAW264.7 cells after 24 hrs by Griess assay; format: functional, cell-based; details: RAW264.7, 24 h
[8] = Cytotoxicity against mouse RAW264.7 cells after 4 hrs by MTT assay; format: cell-based; details: mouse, RAW264.7 cells
[9] = molecular target: Macrophage colony-stimulating factor 1 receptor (Homo sapiens, UniProt P07333); test: Inhibition of FMS (unknown origin) after 120 mins in presence of 33P-ATP
[10] = molecular target: Homeodomain-interacting protein kinase 1 (Homo sapiens, UniProt Q86Z02); test: Inhibition of HIPK1 (unknown origin)
RAW264.7 [11] = test: Antiinflammatory activity in mouse RAW264.7 cells assessed as inhibition of LPS-induced PGE2 production after 24 hrs by enzyme immunoassay; format: functional, cell-based; details: RAW264.7, 24 h

Chain of Macrophage colony-stimulating factor 1 receptor (P07333 whole entry): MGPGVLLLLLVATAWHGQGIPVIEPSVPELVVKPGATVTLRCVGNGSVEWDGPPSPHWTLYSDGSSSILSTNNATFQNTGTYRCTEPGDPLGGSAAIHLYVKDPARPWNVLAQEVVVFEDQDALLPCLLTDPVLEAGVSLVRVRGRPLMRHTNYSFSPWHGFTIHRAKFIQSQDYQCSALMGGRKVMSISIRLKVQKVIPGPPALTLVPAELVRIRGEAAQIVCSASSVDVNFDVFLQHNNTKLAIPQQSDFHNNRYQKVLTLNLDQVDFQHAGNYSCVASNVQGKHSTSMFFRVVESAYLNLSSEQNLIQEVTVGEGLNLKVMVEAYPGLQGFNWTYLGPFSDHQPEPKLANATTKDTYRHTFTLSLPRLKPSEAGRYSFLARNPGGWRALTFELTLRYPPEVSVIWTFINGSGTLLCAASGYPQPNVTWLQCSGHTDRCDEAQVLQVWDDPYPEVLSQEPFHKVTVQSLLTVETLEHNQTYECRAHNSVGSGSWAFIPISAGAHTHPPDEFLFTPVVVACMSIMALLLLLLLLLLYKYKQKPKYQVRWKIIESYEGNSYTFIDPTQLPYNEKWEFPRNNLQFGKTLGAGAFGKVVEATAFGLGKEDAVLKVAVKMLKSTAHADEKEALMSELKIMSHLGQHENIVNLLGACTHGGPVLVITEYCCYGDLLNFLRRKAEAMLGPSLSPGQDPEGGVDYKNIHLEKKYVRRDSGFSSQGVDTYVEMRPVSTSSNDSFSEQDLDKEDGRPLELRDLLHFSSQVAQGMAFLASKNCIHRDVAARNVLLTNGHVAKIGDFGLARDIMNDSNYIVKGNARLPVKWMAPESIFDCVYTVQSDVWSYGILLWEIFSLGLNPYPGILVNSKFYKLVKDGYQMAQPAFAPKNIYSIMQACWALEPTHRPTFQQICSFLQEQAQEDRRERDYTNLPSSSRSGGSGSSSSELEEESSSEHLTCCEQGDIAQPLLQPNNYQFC
Chain of Homeodomain-interacting protein kinase 1 (Q86Z02 whole entry): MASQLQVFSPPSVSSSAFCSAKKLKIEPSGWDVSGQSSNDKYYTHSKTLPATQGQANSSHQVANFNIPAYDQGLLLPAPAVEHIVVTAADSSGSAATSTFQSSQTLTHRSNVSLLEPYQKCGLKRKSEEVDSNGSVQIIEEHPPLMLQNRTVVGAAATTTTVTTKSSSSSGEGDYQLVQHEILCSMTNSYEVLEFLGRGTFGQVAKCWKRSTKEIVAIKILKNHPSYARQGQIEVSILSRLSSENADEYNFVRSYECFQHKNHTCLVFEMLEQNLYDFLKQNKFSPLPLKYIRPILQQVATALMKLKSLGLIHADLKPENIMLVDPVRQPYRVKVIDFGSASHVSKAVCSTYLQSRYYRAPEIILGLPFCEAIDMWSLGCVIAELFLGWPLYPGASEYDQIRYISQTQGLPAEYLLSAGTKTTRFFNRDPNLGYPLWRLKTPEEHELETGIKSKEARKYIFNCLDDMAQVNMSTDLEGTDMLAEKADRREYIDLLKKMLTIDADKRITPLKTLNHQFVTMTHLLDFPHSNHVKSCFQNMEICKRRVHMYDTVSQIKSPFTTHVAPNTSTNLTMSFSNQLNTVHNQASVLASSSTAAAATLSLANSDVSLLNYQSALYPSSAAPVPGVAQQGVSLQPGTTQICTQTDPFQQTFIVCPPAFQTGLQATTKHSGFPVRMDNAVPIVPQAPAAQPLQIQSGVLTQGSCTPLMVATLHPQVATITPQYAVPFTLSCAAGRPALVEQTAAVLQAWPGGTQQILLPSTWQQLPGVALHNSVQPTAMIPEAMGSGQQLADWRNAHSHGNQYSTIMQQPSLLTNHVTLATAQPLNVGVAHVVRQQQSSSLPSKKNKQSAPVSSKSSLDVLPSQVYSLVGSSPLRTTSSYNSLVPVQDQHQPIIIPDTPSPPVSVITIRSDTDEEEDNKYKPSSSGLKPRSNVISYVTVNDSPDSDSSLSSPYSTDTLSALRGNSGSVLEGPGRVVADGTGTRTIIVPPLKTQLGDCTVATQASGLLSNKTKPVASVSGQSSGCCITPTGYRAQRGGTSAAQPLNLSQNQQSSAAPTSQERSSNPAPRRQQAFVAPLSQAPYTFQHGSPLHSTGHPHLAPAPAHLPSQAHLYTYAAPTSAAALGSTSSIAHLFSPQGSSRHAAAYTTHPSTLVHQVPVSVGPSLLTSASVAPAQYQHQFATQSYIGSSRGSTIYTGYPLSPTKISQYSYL

Row | Structure (SMILES) | pIC50 [1] | Activity [2] | Activity [3] | Activity [4] | Activity [5] | Activity [6] | pIC50 (RAW264.7 [7]) | IC80 at 4 h [8] | pIC50 [9] | pIC50 [10] | pIC50 (RAW264.7 [11])
1 | COc1cc(C)ccc1Oc1nc(Nc2ccc(N3CCOCC3)cc2)ncc1NCc1ccc(OC(F)(F)F)cc1 | 5.48 | 59.5 to 61.6% | 43.7 to 45.1% | 45 to 47.1% | 21.3 to 22.5% | 84.9 to 85.4% |  |  |  |  | 
2 | COc1cc(C)ccc1Oc1nc(Nc2ccc(N3CCOCC3)cc2)ncc1/N=C/c1cc(Cl)cc(Cl)c1 | 8.19 | 26.7 to 26.9% | 37.1% | 32.8 to 33.6% | 38.9 to 40.7% | 35.8 to 36.1% | < 6.00 | 987 nM |  |  | 
3 | COc1cc(C)ccc1Oc1nc(Nc2ccc(N3CCOCC3)cc2)ncc1/N=C/c1ccc(Cl)cc1 | 7.27 | 19.1% | 10.6% | 14.7% | 16.8% | 38.2% | < 5.30 | > 6000 nM |  |  | 
4 | COc1cc(/C=N/c2cnc(Nc3ccc(N4CCOCC4)cc3)nc2Oc2ccc(C)cc2OC)cc(OC)c1 | 6.97 | 21.3 to 26.9% | 7.1 to 8.37% | 10.3 to 12.6% | 4.38 to 7.22% | 28.8 to 37.5% | < 6.00 | > 1000 nM | 6.05 |  | 
5 | COc1ccccc1NC(=O)Nc1cnc(Nc2ccc(N3CCOCC3)cc2)nc1Oc1ccc(C)cc1OC | 5.26 | 82.2 to 82.9% | 33.8 to 33.9% | 54.2 to 56% | 35.9 to 36.2% | 97.2 to 97.4% |  |  |  |  | 
6 | COc1cc(/C=N/c2cnc(Nc3ccc(N4CCOCC4)cc3)nc2Oc2ccc(C(F)(F)F)cc2)cc(OC)c1 | 4.92 | 61.8 to 72.5% | 43.8 to 52.2% | 58.4 to 60% | 49.4 to 59.3% | 83.1 to 91.7% |  |  | 7.85 |  | 
7 | COc1cc(NC(=O)Nc2cnc(Nc3cc(OC)cc(OC)c3)nc2Oc2ccc(C)cc2OC)cc(OC)c1 | 4.38 | 101 to 106% | 77.3 to 82% | 90.1 to 95.8% | 60.4 to 61.1% | 103 to 108% |  |  |  |  | 
8 | COc1cc(Nc2ncc(NC(=O)c3cc(OC)cc(OC)c3)c(Oc3ccc(C)cc3OC)n2)cc(OC)c1 | < 4.00 | 99.6 to 102% | 95.7 to 97.5% | 100 to 101% | 92.3 to 96.8% | 98.3 to 103% |  |  |  |  | 
9 | Cn1cc(C2=C(c3cn(CCCSC(=N)N)c4ccccc34)C(=O)NC2=O)c2ccccc21 |  |  |  |  |  |  |  |  |  | 9.44 | 
10 | COc1cc(NC(=O)Nc2cnc(Nc3ccc(N4CCOCC4)cc3)nc2Oc2cccc(OC)c2)cc(OC)c1 | 5.10 | 64.7 to 71% | 42.1 to 49.3% | 57.6 to 66.5% | 62.1 to 63.2% | 78.7 to 86.2% |  |  |  |  | 
11 | CS(=O)(=O)Nc1ccc([N+](=O)[O-])cc1OC1CCCCC1 [NS-398] |  |  |  |  |  |  |  |  |  |  | 8.14
12 | COc1cc(C)ccc1Oc1nc(Nc2ccc(N3CCOCC3)cc2)ncc1/N=C/c1cccc(OC(F)(F)F)c1 | 7.47 | 26.8 to 27.9% | 49 to 54.7% | 41.1 to 43.7% | 41.7 to 50.1% | 39.2 to 39.8% | < 4.70 | < 5000 nM |  |  | 
13 | COc1cc(NC(=O)Nc2cnc(Nc3ccc(N4CCOCC4)cc3)nc2Oc2ccc(C(F)(F)F)cc2)cc(OC)c1 | < 4.00 | 89.3 to 89.9% | 78.1 to 84.5% | 83.8 to 90.7% | 74.2 to 74.8% | 96 to 100% |  |  |  |  | 
14 | COc1cc(C)ccc1Oc1nc(Nc2ccc(N3CCOCC3)cc2)ncc1/N=C/c1cccc(Cl)c1 | 7.21 | 19.6 to 23.2% | 11.3 to 14.9% | 15.3 to 16.8% | 28.6 to 36.9% | 32.6 to 35.6% | < 6.00 | > 1000 nM |  |  | 
15 | COc1cc(C)ccc1Oc1nc(Nc2ccc(N3CCOCC3)cc2)ncc1NCc1cc(C(F)(F)F)cc(C(F)(F)F)c1 | 4.94 | 88.1 to 91.2% | 55.1 to 58.1% | 66.6 to 71% | 41.1 to 41.7% | 104% |  |  |  |  | 
16 | COc1cc(OC)cc(C(=O)Nc2cnc(Nc3ccc(N4CCOCC4)cc3)nc2Oc2ccc(C)cc2OC)c1 | 4.99 | 86.7 to 89% | 46.5 to 47% | 67.3 to 72.8% | 39 to 39.6% | 99.1 to 99.3% |  |  |  |  | 
